Measurements from patent US20240391862A1, “(1,4,5-TRISUBSTITUTED-1H-PYRAZOL-3-YL)OXY-2-ALKOXY ALKYL ACIDS AND THEIR DERIVATIVES, THEIR SALTS AND THEIR USE AS HERBICIDAL AGENTS” (Bayer AKtiengesellschaft, priority 2021, published 2024).

Columns and labels:
[1] = test system: POLCO; test: Post-emergence herbicidal effect, greenhouse pot test; format: in vivo, Fallopia convolvulus; details: Fallopia convolvulus, 504 h, read-out: Post-emergence effect against POLCO in %
Procedure, shortened: (§1)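 Greenhouse pot test: weeds and crops sown in sandy loam, sprayed post-emergence at one-leaf stage (2–3 weeks after sowing) with WP or EC formulations plus 0.5% additive at 600 l/ha water, rates 20–320 g/ha. Visual rating about 3 weeks later versus untreated controls (100% = dead, 0% = as control).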

[2] = test system: ABUTH; test: as above; format: in vivo, Abutilon theophrasti; details: Abutilon theophrasti, 504 h, visual rating about 3 weeks after treatment, read-out: Post-emergence effect against ABUTH
Procedure, shortened: as §1

[3] = test system: VERPE; test: Pre-emergence herbicidal effect, greenhouse pot test; format: in vivo, Veronica persica; details: scored visually after about 3 weeks vs untreated controls
From the text: (§2) Seeds of monocotyledonous and dicotyledonous weed plants and crop plants are placed in plastic or organic planting pots and covered with soil. The compounds of the invention, formulated in the form of wettable powders (WP) or as emulsion concentrates (EC), are then applied to the surface of the covering soil as aqueous suspension or emulsion with addition of 0.5% additive at a water application rate equivalent to 600 l/ha. After the treatment, the pots are placed in a greenhouse and kept under good growth conditions for the trial plants. After about 3 weeks, the effect of the preparations is scored visually in comparison with untreated controls as percentages. For example, 100% activity=the plants have died, 0% activity=like control plants.
(§3) Tables 1a to 19c below show the effects/crop compatibilities of selected compounds of the general formula (I) on various harmful plants at an application rate corresponding to 20 to 320 g/ha, which were obtained by the trial procedure specified above.
(§4) • ALOMY: Alopecurus myosuroides SETVI: Setaria viridis • AVEFA: Avena fatua POLCO: Fallopia convolvulus • AMARE: Amaranthus retroflexus ECHCG: Echinochloa crus-galli • LOLRJ: Lolium rigidum STEME: Stellaria media • VERPE: Veronica persica MATIN: Tripleurospermum inodorum • DIGSA: Digitaria sanguinalis ABUTH: Abutylon threophrasti • TRZAS: Triticum aestivum VIOTR: Viola tricolor • BRSNW: Brassica napus ZEAMX: Zea mays • PHBPU: Ipomoea purpurea GLXMA: Glycine max • ORYSA: Oryza sativa HORMU: Hordeum murinum

[4] = test system: various unwanted plants; test: Post-emergence effect against various unwanted plants (PO): comparative test of I-01 with compounds from WO2020/245044 (Tables 41a, 41b) and summary statements; format: in vivo; details: for Post-emergence effect, Effect %, ALOMY / Post-emergence effect, Effect %, AVEFA / Post-emergence effect, Effect %, ECHCG / Post-emergence effect, Effect %, LOLRI / Post-emergence effect, Effect %, SETVI: comparative test
Description: Seeds of monocotyledonous and dicotyledonous weeds and crop plants are placed in sandy loam in plastic or organic planting pots, covered with soil and cultivated in a greenhouse under controlled growth conditions. 2 to 3 weeks after sowing, the trial plants are treated at the one-leaf stage. The compounds of the invention, formulated in the form of wettable powders (WP) or as emulsion concentrates (EC), are then sprayed onto the green parts of the plants as aqueous suspension or emulsion with addition of 0.5% additive at a water application rate of 600 l/ha (converted). After the test plants have been kept in the greenhouse under optimum growth conditions for about 3 weeks, the activity of the preparations is rated visually in comparison to untreated controls. For example, 100% activity=the plants have died, 0% activity=like control plants. […] Tables 41a and 41b below show the effects of the inventive compound (I-01) with structurally similar compounds (WO2020/245044) on various harmful plants at an application rate corresponding to 320 g/ha or less, which have been obtained by the trial procedure specified hereinafter. The inventive compound (I-01) differs here by variance of a significant structural feature from the structurally similar compound with regard to the R^2 radical. Seeds of monocotyledonous and dicotyledonous weeds and crop plants are placed in sandy loam in plastic or organic planting pots, covered with soil and cultivated in a greenhouse under controlled growth conditions. 2 to 3 weeks after sowing, the trial plants are treated at the one-leaf stage. The compounds of the invention, formulated in the form of wettable powders (WP) or as emulsion concentrates (EC), are then sprayed onto the green parts of the plants as aqueous suspension or emulsion with addition of 0.5% additive at a water application rate of 600 l/ha (converted). After the test plants have been kept in the greenhouse under optimum growth conditions for about 3 weeks, the activity of the preparations is rated visually in comparison to untreated controls. For example, 100% activity=the plants have died, 0% activity=like control plants. Effects/crop compatibilities of selected compounds (see Table 39) on various harmful plants at an application rate corresponding to 80 to 320 g/ha that have been obtained by the trial procedure specified hereinafter are shown in Tables 41a and 41b below.

[5] = test system: ABUTH; test: Pre-emergence herbicidal effect, greenhouse pot test; format: in vivo, Abutilon theophrasti; details: 320 g/ha, scored visually after about 3 weeks vs untreated controls
From the text: as §2, §3, §4

[6] = test system: AVEFA; test: as above; format: in vivo, Avena fatua; details: 320 g/ha, scored visually after about 3 weeks vs untreated controls
From the text: as §2, §3, §4

[7] = test system: VIOTR; test: as above; format: in vivo, Viola tricolor; details: scored visually after about 3 weeks vs untreated controls
From the text: as §2, §3, §4

[8] = test system: ZEAMX; test: Post-emergence herbicidal effect and crop plant compatibility, greenhouse pot test; format: in vivo, Zea mays; details: Zea mays, 504 h, 80 g/ha, one-leaf stage, rated visually after about 3 weeks vs untreated controls, read-out: Post-emergence effect at 80 g/ha against ZEAMX in %
Procedure, shortened: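 Sandy loam pots, greenhouse. One-leaf stage (2–3 wk after sowing) foliar spray; WP/EC in water + 0.5% additive, 600 l/ha; 20–320 g/ha. Visual score ~3 wk, 0–100% vs untreated.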

[9] = test system: DIGSA; test: Pre-emergence herbicidal effect, greenhouse pot test; format: in vivo, Digitaria sanguinalis; details: 320 g/ha, scored visually after about 3 weeks vs untreated controls
From the text: as §2, §3, §4

[10] = test system: DIGSA; test: Post-emergence herbicidal effect, greenhouse pot test; format: in vivo, Digitaria sanguinalis; details: Digitaria sanguinalis, 504 h, visual rating about 3 weeks after treatment, read-out: Post-emergence effect against DIGSA
Procedure, shortened: as §1

CCOC(=O)C(OCC)Oc1nn(-c2ccccc2F)c(-c2ccc(F)nc2)c1Br (racemic) [Example I-01, Ethyl (2RS)-{[4-bromo-1-(2-fluorophenyl)-5-(6-fluoropyridin-3-yl)-1H-pyrazol-3-yl]oxy}(ethoxy)acetate] was tested, and the pest or weed control at 80 g/ha ([1]; 80 g/ha) was 80%, the pest or weed control at 320 g/ha [1] was 80% and the pest or weed control at 80 g/ha ([2]; 80 g/ha) was 80%. The pest or weed control at 320 g/ha [2] was 90%, the “Pre-emergence effect at 320 g/ha against VERPE in %” value [3] was 80% and the “Post-emergence effect, Effect %, ALOMY” value ([4]; 80 g/ha) was 90%. For the same compound, the “Post-emergence effect, Effect %, ALOMY” value ([4]; 320 g/ha) was 100%, the “Post-emergence effect, Effect %, AVEFA” value ([4]; 80 g/ha) was 90% and the “Post-emergence effect, Effect %, AVEFA” value ([4]; 320 g/ha) was 90%. For the same compound, the “Post-emergence effect, Effect %, ECHCG” value ([4]; 80 g/ha) was 90%, the “Post-emergence effect, Effect %, ECHCG” value ([4]; 320 g/ha) was 90% and the “Post-emergence effect, Effect %, LOLRI” value ([4]; 80 g/ha) was 70%. The “Post-emergence effect, Effect %, LOLRI” value ([4]; 320 g/ha) was 90%, the “Post-emergence effect, Effect %, SETVI” value ([4]; 80 g/ha) was 90% and the “Post-emergence effect, Effect %, SETVI” value ([4]; 320 g/ha) was 90%. The “herbicidal efficacy by comparison to the structurally similar compounds (Tables 41a and 41b)” value ([4]; different harmful plants, 320 g or less per hectare, vs compounds from WO2020/245044) was “distinctly improved herbicidal efficacy”.

COC(=O)C(OC)Oc1nn(-c2ccccc2F)c(-c2ccc(F)nc2)c1Br (racemic) [Example I-04, Methyl (2RS)-{[4-bromo-1-(2-fluorophenyl)-5-(6-fluoropyridin-3-yl)-1H-pyrazol-3-yl]oxy}(methoxy)acetate] was tested, and the pest or weed control at 320 g/ha [2] was 80%, the “Pre-emergence effect at 320 g/ha against ABUTH in %” value [5] was 80% and the “Pre-emergence effect at 320 g/ha against VERPE in %” value [3] was 90%. For the same compound, the “Pre-emergence effect at 320 g/ha against AVEFA in %” value [6] was 80%, the “Pre-emergence effect at 80 g/ha against VIOTR in %” value ([7]; 80 g/ha) was 80% and the “Pre-emergence effect at 320 g/ha against VIOTR in %” value [7] was 100%.

COC(=O)C(OC)Oc1nn(-c2ncccc2F)c(-c2ccc(F)nc2)c1Br (centres unmarked) [Example I-05] was tested, and the plant injury at 80 g/ha [8] was 20%, the pest or weed control at 320 g/ha [1] was 80% and the “Pre-emergence effect at 320 g/ha against DIGSA in %” value [9] was 90%. For the same compound, the “Pre-emergence effect at 320 g/ha against AVEFA in %” value [6] was 90%, the “Pre-emergence effect at 320 g/ha against VIOTR in %” value [7] was 100% and the pest or weed control at 80 g/ha ([10]; 80 g/ha) was 90%. For the same compound, the pest or weed control at 320 g/ha ([10]; 320 g/ha) was 90%.
